Source: patent US9586967B2, “Pyrrolo pyrimidine derivative” (ONO PHARMACEUTICAL CO., LTD., priority 2013, dated 2017)
Structures can show the parent of a compound that is named as a salt.

Assays:
Axl enzyme = molecular target: T1, Axl enzyme (Homo sapiens, UniProt P30530); assay: Measurement of Axl inhibitory activity (in vitro test, LanthaScreen TR-FRET); format: biochemical; details: Fluorescein-Poly GT substrate, ATP, read-out: Axl enzyme inhibitory activity, value of 50% inhibition rate (IC50 value)
T1 sequence (P30530 26-894): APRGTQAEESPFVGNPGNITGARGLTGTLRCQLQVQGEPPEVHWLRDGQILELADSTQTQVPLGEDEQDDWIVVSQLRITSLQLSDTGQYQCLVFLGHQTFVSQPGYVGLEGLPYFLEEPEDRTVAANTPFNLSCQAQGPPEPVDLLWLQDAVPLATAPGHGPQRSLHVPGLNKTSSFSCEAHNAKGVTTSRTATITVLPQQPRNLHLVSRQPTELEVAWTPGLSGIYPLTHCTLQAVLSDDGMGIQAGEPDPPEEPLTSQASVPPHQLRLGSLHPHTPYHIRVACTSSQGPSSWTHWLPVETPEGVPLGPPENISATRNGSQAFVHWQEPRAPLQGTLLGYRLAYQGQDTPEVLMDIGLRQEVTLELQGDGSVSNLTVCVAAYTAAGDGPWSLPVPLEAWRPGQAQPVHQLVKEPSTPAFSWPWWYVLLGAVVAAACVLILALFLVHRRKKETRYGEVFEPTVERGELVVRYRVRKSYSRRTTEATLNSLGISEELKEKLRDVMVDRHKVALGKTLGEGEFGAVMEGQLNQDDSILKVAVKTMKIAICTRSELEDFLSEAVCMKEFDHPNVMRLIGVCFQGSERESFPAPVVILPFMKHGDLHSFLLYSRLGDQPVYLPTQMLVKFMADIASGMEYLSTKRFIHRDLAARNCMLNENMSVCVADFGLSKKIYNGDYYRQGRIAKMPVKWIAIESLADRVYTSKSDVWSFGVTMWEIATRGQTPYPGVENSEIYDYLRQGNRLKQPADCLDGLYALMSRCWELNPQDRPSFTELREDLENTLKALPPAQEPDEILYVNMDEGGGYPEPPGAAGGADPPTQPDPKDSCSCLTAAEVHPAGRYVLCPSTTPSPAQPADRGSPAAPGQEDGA
Procedure: Measurement of Axl Inhibitory Activity (In Vitro Test)
The Axl enzyme inhibitory activity was measured by using LanthaScreen (registered trademark) system (Invitrogen) based on the attached instruction. The reagents used are shown below.
Reaction buffer solution: A solution containing 50 mmol/L HEPES (pH7.5), 0.01% Brij35, 10 mmol/L MgCl2 and 1 mmol/L EGTA was prepared by using purified water.
Test substance solution: A solution containing a test compound of 5-fold concentration with respect to the final concentration was prepared by 20-fold diluting a DMSO solution of the test compound of each concentration with the reaction buffer solution.
Enzyme solution: A solution containing 400 ng/mL Axl enzyme was prepared by using the reaction buffer solution.
Substrate solution: A solution containing 45 μmmol/L ATP and 500 nmmol/L Fluorescein-Poly GT (Invitrogen) was prepared by using the reaction buffer solution.
Detection solution: A solution containing 20 mM EDTA and 4 nM PY20 (Invitrogen) was prepared by using Dilution B (Invitrogen).
A 10 mmol/L DMSO solution of the test compound was dispensed into a 96-well plate (Nunc), and, furthermore, a 3-fold dilution series was prepared using DMSO. In each well of the 96-well plate for measurement, 5 μL each of the reaction buffer solution containing DMSO was added to a Blank group and a medium group, and 5 μL of the test substance solution was added to the test substance group, respectively. […] After standing still, fluorescence intensity at 520 nm and 495 nm at the time of irradiation with exciting light of 340 nm was measured by using Analyst GT (Molecular Devices). The phosphorylation of the artificial substrate was quantified by Time-resolved Fluorescence Resonance Energy Transfer (TR-FRET). The TR-FRET ratio was calculated by dividing 520 nm fluorescence signal by 495 nm fluorescence signal for each well, and the inhibition rate (%) in the test compound group was calculated based on the following mathematical formula. […]

Ba/F3 Axl = assay: Measurement of proliferation suppression rate using mouse pro-B cell line (Ba/F3 Axl) stably expressing Axl; format: cell-based; details: BaF3, Ba/F3 Axl cells, 48 hours, CELLTITER-GLO, read-out: Proliferation suppression, value of 50% inhibition rate (IC50 value)
Procedure: Measurement of Proliferation Suppression Rate by Using Mouse Pro-B Cell Line (Ba/F3 Axl) Stably Expressing Axl
A 0.1 mmol/L DMSO solution of the test compound was dispensed into a 96-well plate, and further a 3-fold dilution series was prepared using DMSO. DMSO solutions of test compounds, having various concentrations, were further 500-fold diluted with a RPMI1640 medium (containing 10% HI-FBS and 1% penicillin) and a diluted solution of the test compound having […] with respect to the final concentration was prepared. In each well of the 96-well plate (BD Biosciences) for measurement, 50 μL of a RPMI medium was added to the Blank group, 50 μL of a RPMI medium containing 0.2% DMSO was added to the medium group, and 50 μL of the diluted solution of the test compound was added to the test compound group, respectively. Ba/F3 Axl was diluted with a medium to have a density of 2×10^5 cells/mL to prepare a cell suspension. In each well of the 96-well plate for measurement, 50 μL each of the RPMI medium was added to the Blank group, and 50 μL each of the cell suspension was added to the medium group and the test compound group, respectively, and the groups were stood still at 37° C. at 5% CO2 for 48 hours. After standing still, Relative Light Unit (RLU) was measured by using CELLTITER-GLO (registered trademark) LUMINESCENT CELL VIABILITY ASSAY (Promega). The measurement was carried out according to the attached instruction. To each well, 100 μL each of light-emitting solution was added. The plate was stirred at room temperature for 3 min and then stood still at room temperature with light shielded for 10 minutes, and RLU was measured by using Microplate Reader (SpectraMax M5e, Molecular Devices). The average values of RLU of the Blank group and the medium group were respectively calculated, and the proliferation suppression rate of the test compound group was calculated. Proliferation suppression rate (%)={1−(RLU of test compound group−A)/(B−A)}×100 [Math. 2] A: Average value of RLU of Blank group B: Average value of RLU of medium group […]

Row | Compound | IC50 (Axl enzyme) [nM] | IC50 (Ba/F3 Axl) [nM]
1 | CC#CC(=O)NCc1ccc(C(=O)Nc2ccc(-c3cn(C)c4ncnc(N)c34)cc2)c(=O)n1-c1ccccc1 [Example 26, N-[4-(4-amino-7-methyl-7H-pyrrolo[2,3-d]pyrimidine-5-yl)phenyl]-6-[(2-butynoylamino)methyl]-2-oxo-1-phenyl-1,2-dihydro-3-pyridinecarboxamide] | 1.7 | 0.8
2 | Cn1cc(-c2ccc(NC(=O)c3cc(C(F)(F)F)cn(-c4ccccc4)c3=O)cc2)c2c(N)ncnc21 [Example 30, N-[4-(4-amino-7-methyl-7H-pyrrolo[2,3-d]pyrimidin-5-yl)phenyl]-2-oxo-1-phenyl-5-(trifluoromethyl)-1,2-dihydro-3-pyridinecarboxamide trifluoroacetate] | 8 | 10.6
3 | Cn1cc(-c2ccc(NC(=O)c3cc4c(n(-c5ccccc5)c3=O)CC3(CC3)CC4=O)nc2)c2c(N)ncnc21 [Example 45(24), N-[5-(4-amino-7-methyl-7H-pyrrolo[2,3-d]pyrimidin-5-yl)-2-pyridinyl]-2′,5′-dioxo-1′-phenyl-2′,5′,6′,8′-tetrahydro-1′H-spiro[cyclopropane-1,7′-quinoline]-3′-carboxamide] | 9.7 | 7
